Data reported in the supplement of paper PMC11451515.

Experiments:
Experiment in all cases: AUC of viability dose-response curve (% viability x log10 dose units); higher = less sensitive
Details in all cases: 48 h
NOMO1 = tested on: NOMO1
Summary of the method: (§1)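 Leukemia cells adapted to each medium were seeded at 500 or 1000 cells/well in 1536-well plates and dosed with library compounds in DMSO at 11 threefold doses from 47 μM to 0.79 nM for 48 h at 37°C. CellTiter-Glo One luminescence was normalised per plate to DMSO and cell-free wells, then fitted with a four-parameter log-logistic model over log10 doses. Area under the curve was taken from this fit by the trapezoidal rule, with curves above full viability scaled and curves failing quality control removed.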

P12-Ichikawa = tested on: P12-Ichikawa
Summary of the method: as §1

SEM cells = tested on: SEM cells
Summary of the method: as §1

[1] = RPMI 5 mM glucose + 10% dialyzed FBS

SMILES	AUC of viability dose-response curve (NOMO1; HPLM + 10% dialyzed FBS)	AUC of viability dose-response curve (NOMO1; RPMI 5 mM glucose + 10% FBS)	AUC of viability dose-response curve (NOMO1; [1])	AUC of viability dose-response curve (P12-Ichikawa; HPLM + 10% dialyzed FBS)	AUC of viability dose-response curve (P12-Ichikawa; RPMI 5 mM glucose + 10% FBS)	AUC of viability dose-response curve (P12-Ichikawa; [1])	AUC of viability dose-response curve (SEM cells; HPLM + 10% dialyzed FBS)	AUC of viability dose-response curve (SEM cells; RPMI 5 mM glucose + 10% FBS)	AUC of viability dose-response curve (SEM cells; [1])
CC12CC3CC(C)(C1)CC(N)(C3)C2	446	457	461	450	464	467	440	419	459
Cc1csc(-c2nnc(Nc3ccc(Oc4ncccc4-c4ccnc(N)n4)cc3)c3ccccc23)c1	408	334	357	178	191	226	258	211	226
O=P(O)(O)C(O)(Cn1ccnc1)P(=O)(O)O	471	474	477	448	445	450	427	425	424
COc1c(C)c2c(c(O)c1C/C=C(\C)CCC(=O)O)C(=O)OC2	421	425	428	426	392	404	436	414	445
COc1ccc2c(c1)[C@]13CCCCC1C(C2)N(C)CC3 (some centres undefined)	468	466	469	467	474	457	435	443	467
CC(C)(O)CC(=O)NCCn1ccc2ncnc(Nc3ccc(Oc4cccc(C(F)(F)F)c4)c(Cl)c3)c21	415	450	433	425	437	436	436	415	432
O=C(O)c1cccnc1Nc1cccc(C(F)(F)F)c1	446	452	461	451	451	444	466	420	436
COc1ccc(C(=O)c2c(C)n(CCN3CCOCC3)c3cc(I)ccc23)cc1	354	344	357	381	381	409	461	461	458
CCOC(=O)C(C)OC1=CC=CC2=C1\C=C/N(CC(=O)NC3=CC=C4OCCOC4=C3)C2=O (centres undefined)	441	434	442	442	452	436	453	441	443
COC1=C(OCCCN2CCOCC2)C=CC\3=C1/N=C(/NC(=O)C4=CN=C(N)N=C4)N5CC/N=C35				385	344	364	369	360	358
CC[C@H]1OC(=O)[C@H](C)C(=O)[C@H](C)[C@@H](O[C@H]2O[C@H](C)C[C@H](N(C)C)[C@H]2O)[C@](C)(OC)C[C@@H](C)C(=O)[C@H](C)[C@H]2N(CCCCn3cnc(-c4cccnc4)c3)C(=O)O[C@]12C	439	447	459	452	444	395	447	462	453
C[C@@H](CN1CC(=O)NC(=O)C1)N1CC(=O)NC(=O)C1	273	296	301	278	317	303	233	206	198
O=C(O)c1cc(/N=N/c2ccc([S+](=O)([O-])Nc3ccccn3)cc2)ccc1O	471	466	470	465	468	474	452	465	453
NC[C@H]1O[C@H](O[C@@H]2[C@H](O)[C@@H](O[C@H]3O[C@H](CO)[C@@H](O)[C@H](N)[C@H]3O)[C@H](N)C[C@@H]2N)[C@H](O)[C@@H](O)[C@@H]1O	455	452	458	445	466	461			
COc1cc[nH]c2ncc(C(=O)C(=O)N3CCN(C(=O)c4ccccc4)C[C@H]3C)c1-2	389	461	452	455	463	470	419	453	428
Cc1ccc([S+](=O)([O-])OCC(=O)Nc2ccc(C(=O)O)c(O)c2)cc1	469	460	448	446	469	465	458	438	455
COC1=CC=C(C(=C1)OC(C)C)C/2=N/[C@@H]([C@@H](N2C(=O)N3CCNC(=O)C3)C4=CC=C(Cl)C=C4)C5=CC=C(Cl)C=C5	409	439	434	404	427	413	279	250	253
Cc1coc2c1C(=O)C(=O)c1c-2ccc2c1CCCC2(C)C	437	455	450	450	444	438	439	432	421
COc1ccc2c(c1)CN(C)CC2c1ccc(Cl)c(Cl)c1 (centres undefined)	430	463	437	475	471	461	465	467	443
CC[C@@H]([C@H](C)O)n1ncn(-c2ccc(N3CCN(c4ccc(OCC5CO[C@@](Cn6cncn6)(c6ccc(F)cc6F)C5)cc4)CC3)cc2)c1=O (some centres undefined)	457	427	423	450	447	425	452	452	458
NC(=O)c1ccc(N(C(N)=O)c2c(F)cccc2F)nc1-c1ccc(F)cc1F	472	447	429	476	468	449	412	454	411
COC(=O)c1ccc2c(c1)NC(=O)/C2=C(\Nc1ccc(N(C)C(=O)CN2CCN(C)CC2)cc1)c1ccccc1	453	459	441	458	462	451			
CCCCOCCOc1nc(-c2ccc(C(=O)O)c(F)c2)sc1C	420	437	436	464	434	439	456	460	475
COc1cccc2c1C(=O)c1c(O)c3c(c(O)c1C2=O)C[C@@](O)(C(=O)CO)C[C@@H]3O[C@H]1C[C@H](N)[C@H](O)[C@H](C)O1	367	369	374	338	326	346	286	268	271

SMILES	AUC of viability dose-response curve (NOMO1; HPLM + 10% dialyzed FBS)	AUC of viability dose-response curve (NOMO1; RPMI 5 mM glucose + 10% FBS)	AUC of viability dose-response curve (NOMO1; [1])	AUC of viability dose-response curve (P12-Ichikawa; HPLM + 10% dialyzed FBS)	AUC of viability dose-response curve (P12-Ichikawa; RPMI 5 mM glucose + 10% FBS)	AUC of viability dose-response curve (P12-Ichikawa; [1])	AUC of viability dose-response curve (SEM cells; HPLM + 10% dialyzed FBS)	AUC of viability dose-response curve (SEM cells; RPMI 5 mM glucose + 10% FBS)	AUC of viability dose-response curve (SEM cells; [1])
CN1\C=N/C2=CC=C(NC3=CC(=CC=C3C)NC(=O)C4=CC(=CC=C4)C(C)(C)C#N)C=C2C1=O	376	377	355	421	395	422	424	431	433
Cc1ccnc2c1NC(=O)c1cccnc1N2C1CC1	405	424	436	474	464	473	457	439	444
Oc1nc(-c2ccc(C(F)(F)F)cc2)nc2c1CSCC2	477	441	466	464	464	436	438	457	449
CC(=O)Oc1ccccc1C(=O)Nc1ncc([N+](=O)[O-])s1	459	464	420	457	446	442	441	454	470
CCOC(=O)\C1=C\[C@]2(CC)CCCN3CCC4=C([C@H]23)[N]1C5=C4C=CC=C5	464	464	466	469	470	468	464	469	476
Nc1c2c(nc3ccccc13)CCCC2	352	376	388	434	440	433	431	390	402
CC(C)c1cc(C(C)C)c(CC(=O)N[S+](=O)([O-])Oc2c(C(C)C)cccc2C(C)C)c(C(C)C)c1	445	439	426	469	469	451	471	467	464
O=C(c1ccccc1)c1ccc2n1CCC2C(=O)O (centres undefined)	461	458	464	423	413	424	439	421	426
COc1ccc(C(=O)CC2(O)C(=O)Nc3c(Cl)ccc(Cl)c32)cc1 (centres undefined)	408	416	418	388	387	406	391	330	388
N[C@@H]1CONC1=O	474	441	464	468	474	465	418	443	431
COc1cc(C(=O)N2CC[C@@H](O)[C@@H](N)C2)cc2nc(-c3cc4ccccc4n3CC3CC3)n(C)c12	294	327	338	279	336	324	357	276	335
C[C@@H]1CCO[C@H]2CN\3/C=C(/C(=O)NCC4=C(F)C=C(F)C=C4)C(=O)\C(=C3C(=O)N12)O	458	442	452	456	460	459	447	454	465
CC(N[C@H]1CCCC[C@@H]1NC(=O)c1ccc(Cl)cc1)c1cccc2ccccc12 (some centres undefined)	398	416	421	428	420	425	449	449	455
OCC(O)C(O)C(O)CO (centres undefined)	430	414	447	455	432	429	421	429	402
CNCC[C@H](Oc1cccc2ccccc12)c1cccs1	411	429	430	453	466	459	437	437	412
O=C(O)CCNC(=O)c1ccc(/N=N/c2ccc(O)c(C(=O)O)c2)cc1	465	469	468	469	447	443	443	454	464
CCCCOc1c(C(=O)c2c(F)cc(C)cc2F)cnc2[nH]ncc12	460	444	424	470	458	435	410	410	413
COC(=O)C\1=C(C)\N\C(=C(/C1C2=CC=CC3=NON=C23)C(=O)OC(C)C)C (centres undefined)	437	441	464	455	454	438	468	449	457
CN(C)CC(C)(C)CNc1nn2c(-c3ccccc3)nnc2cc1C1CCC1	416	447	459	411	405	433			
C[C@]12CC[C@H]3[C@@H](CCC4=CC(=O)CC[C@@H]43)[C@@H]1CC[C@@H]2OC(=O)CCc1ccccc1	463	469	466	469	474	470	415	416	443
Nc1ncnc2c1ncn2[C@@H]1O[C@H](CO)C[C@H]1O	439	420	445	442	439	430	426	445	416
CC1=CC(=CC(=C1C\C2=N\CCN2)C)C(C)(C)C	395	420	407	473	458	463	443	471	460
CCc1ccc(/C=C2/SC(=S)NC2=O)cc1	377	387	375	400	386	377			
C=CC(=O)Nc1cc2c(Nc3ccc(F)c(Cl)c3)ncnc2cc1OCCCN1CCOCC1	421	429	438	421	441	442			
